In data set [1] the test system is myofibroblasts and fibroblasts. The conditions noted are these: 50 mM; cited from earlier work.
The test system of the next data set is corneal fibroblasts. Description: Media additive screening (Phase 1) and full factorial DOE (Phase 2), collagen production by SirCol. Particulars: Phase 1 screening. It is filed as cell-based.
The test system of the next data set is any cell type. Particulars: cited from earlier work.
The subject of another data set is fibroblast migration. The conditions noted are these: dose-dependent, 0.25 and 0.5 mM; cited from earlier work.
For another data set, the system named is human dermal fibroblasts. Particulars: cited from earlier work.
Another data set has as its system human lung fibroblasts. The conditions noted are these: 100 ng/mL; cited from earlier work.
The test system of data set [2] is baboon liver myofibroblasts. The conditions noted are these: cited from earlier work.
A further data set relates to human chondrocytes. The conditions noted are these: cited from earlier work.
Data set [3] concerns cell types including bovine, mouse, and human. Particulars: cited from earlier work.
A further data set deals with rat liver M cells. Particulars: concentration in media as low as 1 ng/ml; cited from earlier work.
The next data set deals with collagen production. The conditions noted are these: cited from earlier work.
Setting [4] is: added to the culture media in concentrations up to 300 μM.

Experimental for corneal fibroblasts: Based on a weighted scoring (Table 13), the seven best additives were selected and were added to the fibroblast media separately in a Phase 1 screening study using concentrations presented in Table 14. […] For this study a three-level design was chosen in order to determine a maxima. This phase of the experiment determined which additives have a statistically significant effect on collagen production and what concentration of each additive has the highest positive impact.
The seven additives also allowed for minimizing the number of plates and maximizing the number of used wells. […] In phase 1 of testing 7 media additives were tested at 3 concentrations with a sample size of 4 for each condition. Additives and concentrations used were determined by the prior research described above. Collagen amount per well was quantified, but cell counts were not performed. Collagen produced per cell was estimated based on the number of cells expected per well. Some groups fell below the SirCol standard curve range of 1-50 ug. These values were represented as 1.00 ug/100 uL and were assigned the lowest rating for efficacy in the resulting trade study.
For the three additives that advanced the highest ranking of each additive was used as the DOE centerpoint. Due to a lack of available stock, ACE low was substituted for ACE medium.
In phase 2 the top performing media additives were fed into a full factorial DOE. The concentrations used were determined by a variety of factors including a trade study, remaining laboratory supplies, and finally the lower cost associated with a lower concentration in a near-tie situation. A near-tie situation was defined by the group as concentrations of the same chemical that scored within 1% total score. […] For acetaldehyde, due to a stock issue the low concentration at 0.2 mM was chosen. For the 100% concentration limit needed to complete construction of the full-factorial DOE plan, each of these values was doubled, which corresponds to the medium conditions from phase 1.

With `CCO` [ethanol], the “effect on the level of collagen production” value in data set [1] is recorded as “no direct effect”.

Take `N#CCCN` [BAPN, β-aminopropionitrile]: in the data set with corneal fibroblasts, the “collagen production versus control, single additive” value is “higher collagen production than the control”. For the same molecule, the “adverse effects on cell viability, collagen synthesis, or non collagen protein synthesis” value in the data set on any cell type is recorded as “No research with any cell type has shown adverse effects”. Further, the fibroblast migration result in the data set on fibroblast migration is given as “inhibited fibroblast migration”.

In the case of IGF-1: Insulin-like Growth Factor 1, the “correlation between level in media and production of collagen” value in the data set on human dermal fibroblasts (manipulation of rat serum applied to media) is recorded as “positive correlation”. In the data set with human lung fibroblasts, the “maximum increase of collagen production from control” value is listed as 300%.

Turning to `CC(O)C(=O)O` (stereo not shown) [Lactate], the collagen production entry is “decrease collagen production” in the data set on human dermal fibroblasts (40 mM) and “statistically significant increase” in data set [2] (5 mM added to media).

For the molecule `NC(=O)CC[C@H](N)C(=O)O` [glutamine], the “maximum benefit for the production of collagen, % of the control” value in the data set on human dermal fibroblasts (at 250 μM) is listed as roughly 300%.

For `O=C(O)[C@@H]1CCCN1` [Proline], in the data set with human dermal fibroblasts (5-10 mM in media), the “maximum increase in collagen production compared to the control value” is on record as 200%.

As to “IL-1p: Interleukin type 1p as printed, glycoprotein associated with immune response”, the “lowest concentration needed for an observable, positive effect on collagen production” value in the data set on human chondrocytes is 2.5 µM.

For `O=C1O[C@H]([C@@H](O)CO)C(O)=C1O` [ASC, Ascorbic acid], in the data set on corneal fibroblasts, the “collagen production versus control, single additive” value is reported as “higher collagen production than the control”. Besides, in data set [3], the production of collagen result is reported as “beneficial”.

TGF-β: in the data set with human dermal fibroblasts, the “concentration for maximum efficacy” value was 12.5 ng/mL.

For “TGF-β1: Transforming Growth Factor Beta 1”, the “collagen production versus control” value in the data set on rat liver M cells is “unquantified increase”.

Regarding `CC=O` [ACE, Acetaldehyde], in the data set on corneal fibroblasts, the “collagen production versus control, single additive” value was “higher collagen production than the control”. The “levels of collagen produced” value (in the data set with human dermal fibroblasts (setting [4]); in data set [2] (setting [4])) was “increase the levels of collagen” in each case.

As to `Cn1c(=O)c2c(ncn2C)n(C)c1=O` [caffeine], the “effect on collagen production” value in the data set with collagen production (concentrations in media as little as 1-5 mM) is on record as “negative effect”.

Take `N[C@@H](CCC(=O)O)C(=O)O` [Glutamate]: the “increase of collagen production from the control” value with human dermal fibroblasts (glutamate-supplemented media) is recorded as 400%.

For `O=C(O)C1CCC=N1` (stereo not shown) [pyrroline-5-carboxylate], in the data set with human dermal fibroblasts, the “optimal concentration for collagen production” value is given as 1 mM and the “time at which the effect on collagen production can be seen” value is 6 h. The “maximum increase of collagen production, % of the control value” in the data set on human dermal fibroblasts (optimal concentration of 1 mM) was 260%.

B1: IL-10: Interleukin, glycoprotein associated with immune response (protein, UniProt P22301 19-178, looked up)
Interleukin-10: SPGQGTQSENSCTHFPGNLPNMLRDLRDAFSRVKTFFQMKDQLDNLLLKESLLEDFKGYLGCQALSEMIQFYLEEVMPQAENQDPDIKAHVNSLGENLKTLRLRLRRCHRFLPCENKSKAVEQVKNAFNKLQEKGIYKAMSEFDIFINYIEAYMTMKIRN
B1: the “effect on level of collagen production” value with collagen production is listed as “reduce the level of collagen production”.

B2: IL-4: Interleukin, glycoprotein associated with immune response (protein, UniProt P05112 25-153, looked up)
Interleukin-4: HKCDITLQEIIKTLNSLTEQKTLCTELTVTDIFAASKNTTEKETFCRAATVLRQFYSHHEKDTRCLGATAQQFHRHKQLIRFLKRLDRNLWGLAGLNSCPVKEANQSTLENFLERLKTIMREKYSKCSS
On to B2, for which the “maximum positive effect on collagen production, increase from control” value in the data set on collagen production was 250%.

These data come from patent US20240043818A1, “Engineered Cells for Increased Collagen Production” (Northeastern University, priority 2020, published 2024).
